Data reported in patent publication US6355620B1, “C-2 modified erythromycin derivatives” (Abbott Laboratories, priority 1999, dated 2002).

Assays:
Test in all cases: In vitro antibacterial activity, agar dilution MIC
Assay type in all cases: cell-based
[1] = test system: Micrococcusluteus ATCC 4698; details: code PP, BHI agar, 35-37° C., 20 to 24 hours, unit assumed
Method: (§1) Representative compounds of the present invention were assayed in vitro for antibacterial activity as follows: Twelve petri dishes containing successive aqueous dilutions of the test compound mixed with 10 mL of sterilized Brain Heart Infusion (BHI) agar (Difco 0418-01-5) were prepared. Each plate was inoculated with 1:100 (or 1:10 for slow-growing strains, such as Micrococcus and Streptococcus) dilutions of up to 32 different microorganisms, using a Steers replicator block. The inoculated plates were incubated at 35-37° C. for 20 to 24 hours. In addition, a control plate, using BHI agar containing no test compound, was prepared and incubated at the beginning and end of each test.
(§2) An additional plate containing a compound having known susceptibility patterns for the organisms being tested and belonging to the same antibiotic class as the test compound was also prepared and incubated as a further control, as well as to provide test-to-test comparability.
(§3) After incubation, each plate was visually inspected. The minimum inhibitory concentration (MIC) was defined as the lowest concentration of drug yielding no growth, a slight haze, or sparsely isolated colonies on the inoculum spot as compared to the growth control.

[2] = test system: Streptococcus Pneumonia 5649; details: code ZZA, BHI agar, 35-37° C., 20 to 24 hours, unit assumed
Method: as §1, §2, §3

[3] = test system: Streptococcus pyogenes EES61; details: code LL, BHI agar, 35-37° C., 20 to 24 hours, unit assumed
Method: as §1, §2, §3

Escherichiacoli SS = details: code RR, BHI agar, 35-37° C., 20 to 24 hours, unit assumed
Method: as §1, §2, §3

[4] = test system: Micrococcusluteus ATCC 9341; details: code OO, BHI agar, 35-37° C., 20 to 24 hours, unit assumed
Method: as §1, §2, §3

[5] = test system: Enterococcusfaecium ATCC X043; details: code II, BHI agar, 35-37° C., 20 to 24 hours, unit assumed
Method: as §1, §2, §3

[6] = test system: Streptococcus Pneumonia GYR 1171; details: code YY, BHI agar, 35-37° C., 20 to 24 hours, unit assumed
Method: as §1, §2, §3

[7] = test system: Staphylococcus aureus 1775; details: code GG, BHI agar, 35-37° C., 20 to 24 hours, unit assumed
Method: as §1, §2, §3

[8] = test system: Nocardia Asteroides ATCC 99700; details: code VV, BHI agar, 35-37° C., 20 to 24 hours, unit assumed
Method: as §1, §2, §3

Candida albicans CCH 442 = details: code TT, BHI agar, 35-37° C., 20 to 24 hours, unit assumed
Method: as §1, §2, §3

[9] = test system: Haemophilislnfluenzae DILL AMP R; details: code WW, BHI agar, 35-37° C., 20 to 24 hours, unit assumed
Method: as §1, §2, §3

[10] = test system: Staphylococcus aureus CMX 553; details: code FF, BHI agar, 35-37° C., 20 to 24 hours, unit assumed
Method: as §1, §2, §3

Escherichiacoli DC-2 = details: code SS, BHI agar, 35-37° C., 20 to 24 hours, unit assumed
Method: as §1, §2, §3

[11] = test system: Mycobacterium smegmatis ATCC 114; details: code UU, BHI agar, 35-37° C., 20 to 24 hours, unit assumed
Method: as §1, §2, §3

[12] = test system: Staphylococcus aureus ATCC 6538P; details: code AA, BHI agar, 35-37° C., 20 to 24 hours, unit assumed
Method: as §1, §2, §3

[13] = test system: Staphylococcus aureus CMX 642A; details: code DD, BHI agar, 35-37° C., 20 to 24 hours, unit assumed
Method: as §1, §2, §3

[14] = test system: Streptococcus agalactiae CMX 508; details: code KK, BHI agar, 35-37° C., 20 to 24 hours, unit assumed
Method: as §1, §2, §3

[15] = test system: Streptococcus bovis A-5169; details: code JJ, BHI agar, 35-37° C., 20 to 24 hours, unit assumed
Method: as §1, §2, §3

[16] = test system: Staphylococcus aureus A-5278; details: code CC, BHI agar, 35-37° C., 20 to 24 hours, unit assumed
Method: as §1, §2, §3

[17] = test system: Staphylococcus aureus NCTC 10649M; details: code EE, BHI agar, 35-37° C., 20 to 24 hours, unit assumed
Method: as §1, §2, §3

[18] = test system: Streptococcus Pneumonia ATCC 6303; details: code XX, BHI agar, 35-37° C., 20 to 24 hours, unit assumed
Method: as §1, §2, §3

[19] = test system: Streptococcus Pneumonia 5979; details: code ZZ, BHI agar, 35-37° C., 20 to 24 hours, unit assumed
Method: as §1, §2, §3

Escherichiacoli JUHL = details: code QQ, BHI agar, 35-37° C., 20 to 24 hours, unit assumed
Method: as §1, §2, §3

[20] = test system: Streptococcus pyogenes PIU 2548; details: code NN, BHI agar, 35-37° C., 20 to 24 hours, unit assumed
Method: as §1, §2, §3

[21] = test system: Streptococcus pyogenes 930; details: code MM, BHI agar, 35-37° C., 20 to 24 hours, unit assumed
Method: as §1, §2, §3

[22] = test system: Staphylococcus aureus A-5177; details: code BB, BHI agar, 35-37° C., 20 to 24 hours, unit assumed
Method: as §1, §2, §3

[23] = test system: Staphylococcus epidermidis 3519; details: code HH, BHI agar, 35-37° C., 20 to 24 hours, unit assumed
Method: as §1, §2, §3

SMILES | Antibacterial Activity (MIC) [1] [µg/mL] | Antibacterial Activity (MIC) [2] [µg/mL] | Antibacterial Activity (MIC) [3] [µg/mL] | Antibacterial Activity (MIC) (Escherichiacoli SS) [µg/mL] | Antibacterial Activity (MIC) [4] [µg/mL] | Antibacterial Activity (MIC) [5] [µg/mL] | Antibacterial Activity (MIC) [6] [µg/mL] | Antibacterial Activity (MIC) [7] [µg/mL] | Antibacterial Activity (MIC) [8] [µg/mL] | Antibacterial Activity (MIC) (Candida albicans CCH 442) [µg/mL] | Antibacterial Activity (MIC) [9] [µg/mL] | Antibacterial Activity (MIC) [10] [µg/mL] | Antibacterial Activity (MIC) (Escherichiacoli DC-2) [µg/mL] | Antibacterial Activity (MIC) [11] [µg/mL] | Antibacterial Activity (MIC) [12] [µg/mL] | Antibacterial Activity (MIC) [13] [µg/mL] | Antibacterial Activity (MIC) [14] [µg/mL] | Antibacterial Activity (MIC) [15] [µg/mL] | Antibacterial Activity (MIC) [16] [µg/mL] | Antibacterial Activity (MIC) [17] [µg/mL] | also measured
C=CCC1(C)C(=O)OC(CC)C2(C)OC(=O)NC2C(C)C(=O)C(C)CC(C)(OCC=Cc2cnc3ccccc3c2)C(OC2OC(C)CC(N(C)C)C2O)C(C)C1=O (stereo not drawn) [Example 4, Compound of formula (II): R^a is —CH2CH═CH-(3-quinolinyl), R^b is H, Y and Z together are O, T is —NH—, R is —CH2CH═CH2] | 0.78 | 2 | 0.1 | 3.1 | 0.1 | 0.2 | 0.25 | > 100 | 0.1 | > 100 | 16 | 0.39 | > 100 | 3.1 | 0.78 | 0.78 | 0.2 | 0.05 | > 100 | 0.78 | Antibacterial Activity (MIC) [18]: 0.25 µg/mL; Antibacterial Activity (MIC) [19]: 64 µg/mL; Antibacterial Activity (MIC) (Escherichiacoli JUHL): > 100 µg/mL; Antibacterial Activity (MIC) [20]: 0.78 µg/mL; Antibacterial Activity (MIC) [21]: 12.5 µg/mL; Antibacterial Activity (MIC) [22]: 0.39 µg/mL; Antibacterial Activity (MIC) [23]: 0.39 µg/mL
CCC1OC(=O)C(C)(O)C(=O)C(C)C(OC2OC(C)CC(N(C)C)C2O)C(C)(OC)CC(C)C(=O)C(C)C2N(CCCCc3ccccc3)C(=O)OC12C (stereo not drawn) [Example 2, Compound of formula (II): R^a is CH3, R^b is H, Y and Z together are O, T is —N(W(R^g))—, W is —(CH2)p—, p is 4, R^g is phenyl, R is —OH] | 0.78 | 1 | 0.1 | 6.2 | 0.39 | 0.39 | 0.25 | 100 | 3.1 | 100 | 64 | 1.56 | > 100 | 3.1 | 1.56 | 3.1 | 0.2 | 0.2 | 100 | 1.56 | Antibacterial Activity (MIC) [18]: 0.5 µg/mL; Antibacterial Activity (MIC) [19]: 32 µg/mL; Antibacterial Activity (MIC) (Escherichiacoli JUHL): > 100 µg/mL; Antibacterial Activity (MIC) [20]: 0.39 µg/mL; Antibacterial Activity (MIC) [21]: 25 µg/mL; Antibacterial Activity (MIC) [22]: 1.56 µg/mL; Antibacterial Activity (MIC) [23]: 3.1 µg/mL
CCC1OC(=O)C(C)(O)C(=O)C(C)C(OC2OC(C)CC(N(C)C)C2O)C(C)(OCC=Cc2cnc3ccccc3c2)CC(C)C(=O)C(C)C2NC(=O)OC12C (stereo not drawn) [Example 8, Compound of formula (II): R^a is —CH2CH═CH-(3-quinolinyl), R^b is H, Y and Z together are O, T is —NH—, R is —OH] | 0.2 | 0.5 | 0.02 | 0.2 | 0.02 | 0.2 | 0.03 | > 100 | 0.39 | > 100 | 16 | 0.78 | > 100 | 3.1 | 0.39 | 0.39 | 0.01 | 0.02 | > 100 | 0.78 | Antibacterial Activity (MIC) [18]: 0.03 µg/mL; Antibacterial Activity (MIC) [19]: 128 µg/mL; Antibacterial Activity (MIC) (Escherichiacoli JUHL): > 100 µg/mL; Antibacterial Activity (MIC) [20]: 0.39 µg/mL; Antibacterial Activity (MIC) [21]: 50 µg/mL; Antibacterial Activity (MIC) [22]: 0.39 µg/mL; Antibacterial Activity (MIC) [23]: 0.39 µg/mL
